In patent US8252832B2, “Kinesin inhibitors as cancer therapeutics” (Novartis AG, priority 2007, dated 2012):
Where two headings read alike, the source gives them in different places.

System: panel of cell lines and tumor explants
Experiment: Soft agar (clonogenic) assay on cell lines and tumor explants
Format: cell-based, human
Design: key to Differential: panel average log(GI50) minus sample log(GI50); positive = more sensitive
Conditions: for GI50: Homo sapiens; for Differential: average log(GI50) 0.236 minus log(GI50)
Description: Compound IIa was tested against a panel of cell lines and tumor explants in a soft agar assay as described in Fiebig, H. H., Maier, A., and Burger, A. M. (Clonogenic assay with established human tumour xenorafts: correlation of in vitro to in vivo activity as a basis for anticancer drug discovery, Eur. J. Cancer 40, 802-820 (2004).) Table 16 lists the type of cancer, the name of the sample, its GI50 (concentration needed to achieve 50% growth inhibition) value in the assay, the logarithm of the GI50 (log(GI50), and the relative sensitivity of each sample (Differential). The differential is calculated by subtracting the log(GI50) for each cell line from the average log(GI50) across the entire panel (0.236 in this case); a positive value indicates a sample that is more sensitive than average, whereas a negative value indicates a sample that is less sensitive than average.

Q: What does the source list for CC(C)(C)[C@H](c1nc(-c2cc(F)ccc2F)cn1Cc1ccccc1)N(CC[C@H](N)CF)C(=O)CO [Compound IIa]?
A: GI50 (Sarcoma, sample 117, GI50 in nM, read-out: log(GI50) (converted)): 0.249 nM; GI50 (Sarcoma, sample 117, read-out: GI50): 0.249 nM; GI50 (Sarcoma, sample 417, GI50 in nM, read-out: log(GI50) (converted)): 0.16 nM; GI50 (Sarcoma, sample 417, read-out: GI50): 0.16 nM; GI50 (Sarcoma, sample 463, GI50 in nM, read-out: log(GI50) (converted)): 19.1 nM; GI50 (Sarcoma, sample 463, read-out: GI50): 19.1 nM; GI50 (Sarcoma, sample 627, GI50 in nM, read-out: log(GI50) (converted)): ≥ 10 nM; GI50 (Sarcoma, sample 627, read-out: GI50): 10 nM; GI50 (Sarcoma, sample 1186, GI50 in nM, read-out: log(GI50) (converted)): 0.327 nM; GI50 (Sarcoma, sample 1186, read-out: GI50): 0.327 nM; GI50 (Sarcoma, sample 1301, GI50 in nM, read-out: log(GI50) (converted)): 0.235 nM; GI50 (Sarcoma, sample 1301, read-out: GI50): 0.235 nM; GI50 (Sarcoma, sample 1410, GI50 in nM, read-out: log(GI50) (converted)): 2.24 nM; GI50 (Sarcoma, sample 1410, read-out: GI50): 2.25 nM; GI50 (U-937, Lymphoma (NHL), sample U937, GI50 in nM, read-out: log(GI50) (converted)): 0.0859 nM; GI50 (U-937, Lymphoma (NHL), sample U937, read-out: GI50): 0.086 nM; Differential (Leukemia (ALL), sample CCRFCEM): 0.779; Differential (Leukemia (ALL), sample JURKAT): 1.211; Differential (Leukemia (ALL), sample MOLT4): 0.293; Differential (Leukemia (CML), sample K562): 0.805; Differential (Lymphoma (NHL), sample U937): 1.302; log(GI50) (Mean across the entire panel, GI50 in nM): 0.236; Differential (Melanoma, sample 462): −0.764; Differential (Melanoma, sample 989): −0.868; Differential (Melanoma, sample 1341): −0.764; Differential (NSCLC, sample 211): 0.902; Differential (NSCLC, sample 289): −0.454; Differential (NSCLC, sample 526): 0.134; Differential (NSCLC, sample 629): −0.764; Differential (NSCLC, sample 677): 0.171; Differential (NSCLC, sample 737): −0.250; Differential (NSCLC, sample 1012): 0.270; Differential (NSCLC, sample 1176): −0.241; Differential (NSCLC, sample 1422): 0.374; Differential (NSCLC, sample 1647): −0.988; Differential (Ovarian, sample 899): −0.764; Differential (Ovarian, sample 1353): −0.764; Differential (Pancreas, sample 546): −0.177; Differential (Pancreas, sample 736): 0.134; Differential (Pancreas, sample 1657): −1.194; Differential (Pancreas, sample 1861): 0.442; Differential (Pancreas, sample 1869): −0.800; Differential (Pancreas, sample 1872): 0.786; Differential (Pancreas, sample 1876): 0.709; Differential (Pancreas, sample 1881): −0.128; Differential (Pancreas, sample 1887): −0.764; Differential (Pancreas, sample 1900): −0.992; Differential (Pancreas, sample 1912): 1.187; Differential (Pancreas, sample 1937): 0.969; Differential (Prostate, sample 22RV1): 0.506; Differential (Prostate, sample DU145): 0.236; Differential (Prostate, sample MRIH1579): −0.764; Differential (Prostate, sample PC3M): 0.609; Differential (SCLC, sample 538): 0.706; Differential (SCLC, sample 573): 0.468; Differential (SCLC, sample 615): 1.323; Differential (SCLC, sample 650): 0.661; Differential (SCLC, sample H69): 0.807; Differential (Sarcoma, sample 117): 0.840; Differential (Sarcoma, sample 417): 1.032; Differential (Sarcoma, sample 463): −1.045; Differential (Sarcoma, sample 627): −0.764; Differential (Sarcoma, sample 1186): 0.722; Differential (Sarcoma, sample 1301): 0.865; Differential (Sarcoma, sample 1410): −0.115; sensitive samples / samples (bladder): 4/6; sensitive samples / samples (breast): 7/10; sensitive samples / samples (hematological cancers (leukemia and lymphoma)): 5/5; sensitive samples / samples (sarcomas): 4/7; sensitive samples / samples (small cell lung cancer (SCLC)): 5/5; average log(GI50) across the entire panel (soft agar assay panel): 0.236
